According to patent publication US6610665B1 (Smithkline Beecham Corporation, priority 1998, dated 2003):
Counter-ions that a name gives are not always drawn.

How the values were obtained:
Type in all cases: cell-based
Conditions in all cases: ratio to NECA
[1] = target: T1, adenosine 1 receptor (Homo sapiens, UniProt P30542); test: Agonist activity, CHO cells transfected with human adenosine receptor and CRE-SPAP reporter; forskolin-enhanced cAMP (A1)
T1 construct: expressed in transfected cells; host or cells: CHO cells
T1 sequence (P30542 1-326): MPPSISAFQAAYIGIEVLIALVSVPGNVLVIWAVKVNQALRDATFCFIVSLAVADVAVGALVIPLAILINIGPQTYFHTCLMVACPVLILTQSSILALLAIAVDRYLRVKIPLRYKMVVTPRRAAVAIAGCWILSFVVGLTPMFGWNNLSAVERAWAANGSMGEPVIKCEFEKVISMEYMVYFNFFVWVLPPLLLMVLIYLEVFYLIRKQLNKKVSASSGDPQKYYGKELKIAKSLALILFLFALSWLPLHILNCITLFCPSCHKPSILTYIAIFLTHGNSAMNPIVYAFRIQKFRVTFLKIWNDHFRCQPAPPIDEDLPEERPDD
Method: (§1) (1) Agonist activity against adenosine 2a, adenosine 1 and adenosine 3 receptor subtypes.
(§2) Agonist selectivity of compounds against other human adenosine receptors is determined using Chinese hamster ovary (CHO) cells transfected with the gene for the relevant human adenosine receptor following a method based on that of Castanon and Spevak, 1994. The CHO cells are also transfected with cyclic AMP response elements promoting the gene for secreted placental alkaline phosphatase (SPAP) (Wood, 1995). The effect of test compounds may be determined by their effects on basal levels of CAMP (A2a) or on forskolin-enhanced cAMP (A1 and A3) as reflected by changes in levels of SPAP. EC50 values for compounds may then be determined as a ratio to that of the non-selective agonist N-ethyl carboxamide adenosine (NECA).

[2] = target: T2, adenosine 3 receptor (Homo sapiens, UniProt P0DMS8); test: Agonist activity, CHO cells transfected with human adenosine receptor and CRE-SPAP reporter; forskolin-enhanced cAMP (A3)
T2 construct: expressed in transfected cells; host or cells: CHO cells
T2 sequence (P0DMS8 1-318): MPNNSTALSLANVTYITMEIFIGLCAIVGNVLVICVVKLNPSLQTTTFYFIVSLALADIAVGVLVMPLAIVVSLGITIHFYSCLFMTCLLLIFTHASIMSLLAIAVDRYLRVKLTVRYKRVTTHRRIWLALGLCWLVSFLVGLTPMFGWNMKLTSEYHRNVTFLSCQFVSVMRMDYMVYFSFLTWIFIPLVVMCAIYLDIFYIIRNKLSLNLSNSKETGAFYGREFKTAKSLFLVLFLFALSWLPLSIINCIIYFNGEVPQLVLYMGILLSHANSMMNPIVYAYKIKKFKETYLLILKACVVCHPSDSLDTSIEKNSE
Method: as §1, §2

[3] = target: T3, adenosine 2a receptor (Homo sapiens, UniProt P29274); test: Agonist activity, CHO cells transfected with human adenosine receptor and CRE-SPAP reporter; basal cAMP (A2a)
T3 construct: expressed in transfected cells; host or cells: CHO cells
T3 sequence (P29274 whole entry): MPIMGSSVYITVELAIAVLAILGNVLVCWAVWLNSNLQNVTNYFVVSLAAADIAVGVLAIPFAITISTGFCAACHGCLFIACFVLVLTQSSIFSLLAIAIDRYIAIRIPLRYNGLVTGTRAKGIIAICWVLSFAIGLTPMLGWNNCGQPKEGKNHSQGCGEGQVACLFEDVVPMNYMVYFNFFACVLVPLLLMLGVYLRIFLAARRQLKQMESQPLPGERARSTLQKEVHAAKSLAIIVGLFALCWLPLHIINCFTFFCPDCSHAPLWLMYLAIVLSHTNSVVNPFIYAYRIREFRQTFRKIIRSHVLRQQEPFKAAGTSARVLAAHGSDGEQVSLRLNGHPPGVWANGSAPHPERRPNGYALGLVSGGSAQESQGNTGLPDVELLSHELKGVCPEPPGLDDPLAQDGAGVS
Method: as §1, §2

[4] = * data are minimum values since preparation was found, after testing, to contain an inactive impurity
[5] = ** data on retested purified compound

Row | Structure (SMILES) | A1, EC50 as a ratio of that of NECA ([1]; CHO cells, SPAP readout) | A3, EC50 as a ratio of that of NECA ([2]; CHO cells, SPAP readout) | A2a, EC50 as a ratio of that of NECA ([3]; CHO cells, SPAP readout) | A1, EC50 as a ratio of that of NECA [1, 4] | A3, EC50 as a ratio of that of NECA [2, 4] | A2a, EC50 as a ratio of that of NECA [3, 4] | A1, EC50 as a ratio of that of NECA [1, 5] | A3, EC50 as a ratio of that of NECA [2, 5] | A2a, EC50 as a ratio of that of NECA [3, 5]
1 | CCc1noc([C@H]2O[C@@H](n3cnc4c(NC(CC)CC)nc(NC5CCCC5)nc43)[C@H](O)[C@@H]2O)n1.O=CO [Example 23, (2R,3R,4S,5S)-2-[2-Cyclopentylamino-6-(1-ethyl-propylamino)-purin-9-yl]-5-(3-ethyl-[1,2,4]oxadiazol-5-yl)-tetrahydro-furan-3,4-diol formate] | 17.02 | >163 | 12.72 |  |  |  |  |  | 
2 | CCc1noc([C@H]2O[C@@H](n3cnc4c(NCCc5ccccc5)nc(NCCc5cn(C)cn5)nc43)[C@H](O)[C@@H]2O)n1.O=CO.O=CO [Example 46] | 3560.13 | >165 | 0.90 |  |  |  |  |  | 
3 | CCc1noc([C@H]2O[C@@H](n3cnc4c(NCC(c5ccccc5)c5ccccc5)nc(NC5CC6CCC5C6)nc43)[C@H](O)[C@@H]2O)n1.O=CO (stereo partly drawn) [Example 41, (2R,3R,4S,5S)-2-{2-(Bicyclo[2.2.1]hept-2-ylamino)-6-(2,2-diphenyl-ethylamino)-purin-9-yl}-5-(3-ethyl-[1,2,4]oxadiazol-5-yl)-tetrahydro-furan-3,4-diol formate] | 2033.2 | >130 | 23.93 |  |  |  |  |  | 
4 | Cc1noc(C2OC(n3cnc4c(N)nc(NC(CO)Cc5ccccc5)nc43)C(O)C2O)n1 [Example 12, (2R,3R,4S,5S)-2-[6-Amino-2-(1S-hydroxymethyl-2-phenyl-ethylamino)-purin-9-yl]-5-(3-methyl-[1,2,4]oxadiazol-5-yl)-tetrahydro-furan-3,4-diol formate] |  |  |  | 1863.5 | >302 | 4.54 |  |  | 
5 | CCc1noc(C2OC(n3cnc4c(NCC(c5ccccc5)c5ccccc5)nc(NC5CCNC5)nc43)C(O)C2O)n1 [Example 3, (2R,3R,4S,5S)-2-[6-(2,2-Diphenyl-ethylamino)-2-(pyrrolidin-3R-ylamino)-purin-9-yl]-5-(3-ethyl-[1,2,4]oxadiazol-5-yl)-tetrahydro-furan-3,4-diol formate] |  |  |  | 6719 | >304 | 4.63 |  |  | 
6 | CCc1noc(C2OC(n3cnc4c(N)nc(NC(CO)Cc5ccccc5)nc43)C(O)C2O)n1 [Example 9, (2R,3R,4S,5S)-2-[6-Amino-2-(1S-hydroxymethyl-2-phenyl-ethylamino)-purin-9-yl]-5-(3-ethyl-[1,2,4oxadiazol-5-yl)-tetrahydro-furan-3,4-diol formate] |  |  |  | 1692.4 | >231 | 0.81 | 3006 | >287 | 0.086
7 | CCc1noc([C@H]2O[C@@H](n3cnc4c(NCC(c5ccccc5)c5ccccc5)nc(NCCN5CCCCC5)nc43)[C@H](O)[C@@H]2O)n1.O=CO [Example 32, (2R,3R,4S,5S)-2-[6-(2,2-Diphenyl-ethylamino)-2-(2-piperidin-1-yl-ethylamino)-purin-9-yl]-5-(3-ethyl-[1,2,4]oxadiazol-5-yl)-tetrahydro-furan-3,4-diol formate] | 7521 | >258 | 31.4 |  |  |  |  |  | 
8 | CCC(CC)Nc1nc(NCCN2CCOCC2)nc2c1ncn2C1OC(c2nc(C3CC3)no2)C(O)C1O.O=CO.O=CO (stereo not drawn) [Example 36] | >9364 | >194 | 20.13 |  |  |  |  |  | 
9 | CCC(CC)Nc1nc(NC2CCCC2)nc2c1ncn2[C@@H]1O[C@H](c2nc(C)no2)[C@@H](O)[C@H]1O.O=CO [Example 22] | 78.28 | >193 | 22.25 |  |  |  |  |  | 
10 | Cc1noc(C2OC(n3cnc4c(N)nc(NCCc5ccccn5)nc43)C(O)C2O)n1.O=CO.O=CO (stereo not drawn) [Example 30] |  |  |  | 1460.7 | >215 | 19.54 |  |  | 
11 | CCCc1noc([C@H]2O[C@@H](n3cnc4c(NCC(c5ccccc5)c5ccccc5)nc(NCCc5cn(C)cn5)nc43)[C@H](O)[C@@H]2O)n1.O=CO [Example 33, (2R,3R,4S,5S)-2-{6-(2,2-Diphenyl-ethylamino)-2-[2-(1-methyl-1H-imidazol-4-yl)-ethylamino]-purin-9-yl}-5-(3-propyl-[1,2,4]oxadiazol-5-yl)-tetrahydro-furan-3,4-diol formate] |  |  |  | ≧815.9 | >259 | 8.35 |  |  | 
12 | CCC(CC)Nc1nc(NCCc2cn(C)cn2)nc2c1ncn2[C@@H]1O[C@H](c2nc(C)no2)[C@@H](O)[C@H]1O.O=CO [Example 14, (2R,3R,4S,5S)-2-{6-(1-Ethyl-propylamino)-2-[2-(1-methyl-1H-imidazol-4-yl)-ethylamino]-purin-9-yl}-5-(3-methyl-[1,2,4]oxadiazol-5-yl)-tetrahydro-furan-3,4-diol formate] | >4587 | >239 | 0.66 |  |  |  |  |  | 
13 | CCC(CC)Nc1nc(NCCN2CCCCC2)nc2c1ncn2C1OC(c2nc(C3CC3)no2)C(O)C1O [Example 35, (2S,3S,4R,5R)-2-(3-Cyclopropyl-[1,2,4]oxadiazol-5-yl)-5-[6-(1-ethyl-propylamino)-2-(2-piperidin-1-yl-ethylamino)-purin-9-yl]-tetrahydro-furan-3,4-diolldiformate] | 912.1 | >194 | 7.89 |  |  |  |  |  | 
14 | Cc1noc([C@H]2O[C@@H](n3cnc4c(N)nc(NCCc5cn(C)cn5)nc43)[C@H](O)[C@@H]2O)n1.O=C(O)C(F)(F)F.O=C(O)C(F)(F)F [Example 7] |  |  |  | 1013.4 | >117 | 11.02 |  |  | 
15 | CCc1noc(C2OC(n3cnc4c(NCCC(C)(C)C)nc(NCCc5cn(C)cn5)nc43)C(O)C2O)n1.O=CO.O=CO [Example 48, (2R,3R,4S,5S)-2-{6-(3,3-Dimethyl-butylamino)-2-[2-(1-methyl-1H-imidazol-4-yl)-ethylamino]-purin-9-yl}-5-(3-ethyl-[1,2,4]oxadiazol-5-yl)-tetrahydro-furan-3,4-diol diformate] | 16.84 | >165 | 4.40 |  |  |  |  |  | 
16 | CCc1noc([C@H]2O[C@@H](n3cnc4c(NCC(c5ccccc5)c5ccccc5)nc(NCCc5ccc(OC)c(OC)c5)nc43)[C@H](O)[C@@H]2O)n1.O=CO [Example 42, (2R,3R,4S,5S)-2-{2-(2-[3,4-Dimethoxy-phenyl]-ethylamino)-6-(2,2-diphenyl-ethylamino)-purin-9-yl}-5-(3-ethyl-[1,2,4]oxadiazol-5-yl)-tetrahydro-furan-3,4-diol formate] | >6064 | >130 | 32.77 |  |  |  |  |  | 
17 | CCC(CC)Nc1nc(NCCN2CCCCC2)nc2c1ncn2[C@@H]1O[C@H](c2nc(C)no2)[C@@H](O)[C@H]1O.O=CO [Example 18, (2R,3R,4S,5S)-2-[6-(1-Ethyl-propylamino)-2-(2-piperidin-1-yl-ethylamino)-purin-9-yl]-5-(3-methyl-[1,2,4]oxadiazol-5-yl)-tetrahydro-furan-3,4-diol formate] |  |  |  | >6244 | >314 | 8.16 |  |  | 
